What all share (experiment): Microdilution test (MIC/MBC)
Type in all cases: cell-based
What all share (conditions): lower line of pair, sub-cultivation 72 h
On the technique in general: In broth dilution the organism is exposed to a series of concentrations in liquid medium.

Assay [1] relates to E. coli. As to the method: (§1) Minimum inhibitory concentration (MIC) is the lowest concentration of an antimicrobial that will inhibit the visible growth of a microorganism after overnight incubation. Minimum inhibitory concentrations are important in diagnostic laboratories to confirm resistance of microorganisms to an antimicrobial agent and to monitor the activity of new antimicrobial agents. A MIC is the most basic laboratory measurement of the activity of an antimicrobial agent against an organism.
(§2) The minimum inhibitory and bactericidal concentrations (MICs and MBCs) can be determined using 96-well microtitre plates. The bacterial suspension is adjusted with sterile saline to a concentration of 1.0×10^5 cfu/m L. Compounds to be investigated are dissolved in broth LB medium (100 μL) with bacterial inoculum (1.0×10^4 cfu per well) to achieve the wanted concentrations (0.02-15.0 μL g/mL). The microplates are incubated for 24 h at 28° C. […] The MBCs are determined by serial sub-cultivation of 2 μL into microtitre plates containing 100 μL of broth per well and further incubation for 72 h. The lowest concentration with no visible growth is defined as the MBC, indicating 99.5% killing of the original inoculum. The optical density of each well is measured at a wavelength of 655 nm by Microplate manager 4.0 (Bio-Rad Laboratories) and compared with a blank and the positive control. Streptomycin is used as a positive control using the same concentrations as in the disc diffusion test. Two replicates were done for each oil and each component.

In assay [2] the test system is S. epidermidis. As to the method: as §1, §2
Assay [3] relates to B. subtilis. The protocol: as §1, §2
The test system of assay [4] is M. flavus. The protocol: as §1, §2
The test system of assay [5] is S. aureus. As to the method: as §1, §2
The subject of assay [6] is E. cloacae. The protocol:
as §1, §2

Assay [7] relates to L. monocytogenes. The protocol:
as §1, §2

Assay [8] relates to S. enteritidis. The protocol:
as §1, §2

Assay [9] deals with S. typhimurium. The protocol:
as §1, §2

Assay [10] concerns P. aeruginosa. The protocol: as §1, §2
The subject of assay [11] is P. mirabilis. As to the method: as §1, §2

On to `CC12CCC(CC1)C(C)(C)O2` [1,8 cineole (eucalyptol)], for which the MBC in [1] was determined as 8.0 μL g/mL; in assay [2], 5.0 μL g/mL; in assay [3] it was 5.0 μL g/mL; in assay [4], 5.0 μL g/mL; in [5], 6.0 μL g/mL; in assay [6] it was 8.0 μL g/mL. Moreover, the MBC came to 6.0 μL g/mL in assay [7]; 6.0 μL g/mL in assay [8]; 6.0 μL g/mL in [9]; 9.0 μL g/mL in [10]; 8.0 μL g/mL in assay [11].
For `C=C(C)[C@H]1CC=C(C)CC1` [Limonene], the MBC in [1] is 12.0 μL g/mL; in [2], 8.0 μL g/mL; in [3], 7.0 μL g/mL; in assay [4] it was 7.0 μL g/mL; in assay [5], 8.0 μL g/mL; in assay [6], 10.0 μL g/mL. In addition, the MBC was 10.0 μL g/mL in assay [7]; 10.0 μL g/mL in assay [8]; 10.0 μL g/mL in [9]; 15.0 μL g/mL in assay [10]; 15.0 μL g/mL in [11].
As to `C=C1CCC2CC1C2(C)C` (stereo not drawn) [beta pinene], the MBC in [1] was found to be 10.0 μL g/mL; in [2] it was 6.5 μL g/mL; in [3] it was 6.0 μL g/mL; in assay [4], 5.5 μL g/mL; in [5], 7.5 μL g/mL; in assay [6], 10.0 μL g/mL. The MBC is reported as 10.0 μL g/mL in [7]; 9.0 μL g/mL in [8]; 9.0 μL g/mL in assay [9]; 13.0 μL g/mL in [10]; 10.0 μL g/mL in assay [11].
